Data: PMC9862037, “Interactions of Mycotoxin Alternariol with Cytochrome P450 Enzymes and OATP Transporters” (Metabolites, 2022)
Where two headings read alike, the source gives them in different places.

Assays:
OATP1B1 = OATP1B1 (Homo sapiens, UniProt Q9Y6L6); assay: cell-based; set-up: expressed in transfected cells; host or cells: A431; conditions: A431-OATP1B1; pyranine 10 µM; pH 5.5; 15 min; read-out: IC50, OATP1B1 inhibition
Description: (§1) A431 cell lines overexpressing human OATPs (1A2, 1B1, 1B3, or 2B1) and their mock transfected controls were generated earlier. A431 cells expressed no or negligible OATPs compared to the overexpressing cell lines. Cells were cultured in Dulbecco’s modified Eagle medium (DMEM, Thermo Fisher Scientific, Waltham, MA, USA) with 10% fetal bovine serum, 2 mM L-glutamine, 100 U/mL penicillin, and 100 µg/mL streptomycin at 37 °C, with 5% CO2. OATP expression was regularly monitored (based on the transport activity of transfected cells), and the cells were used up to 20 passages.
Interaction between OATPs (1A2, 1B1, 1B3, and 2B1) and AOH was measured in an indirect transport assay with pyranine or sulforhodamine 101 as fluorescent probes. A431 cell overexpressing OATPs or their mock transfected controls were seeded on 96-well plates one day prior to the measurements in 200 µL DMEM in 8 × 10^4 cells/well density. […] Fluorescence was measured in an Enspire plate reader (Perkin Elmer, Waltham, MA, USA) in Ex/Em wavelengths 460/510 nm for pyranine and 586/605 nm for sulforhodamine 101. Bottom reading was applied with two horizontal (X) and two vertical (Y) points, measurement height was 3 mm with 200 flashes. IC50 values were calculated by sigmoidal fitting (Hill1), using the Origin (version 2018, OriginLab Corporation, Northampton, MA, USA) software.

CYP2C19 = target: T1, CYP2C19 (Homo sapiens, UniProt P33261); type: in vitro ADME; conditions: 5 μM AOH; significant (p < 0.01) only after 120 min
T1 construct: purchased Merck; host or cells: yeast (inferred from the description of the CYPnull control, 'processed identically')
Description: (§2) To test the potential biotransformation of AOH by CYPs, the changes in the concentrations of AOH were examined in the presence of CYP1A2, 2C9, 2C19, 2D6, or 3A4 enzymes. Samples (final volume: 200 μL) containing AOH (5 μM), glucose-6-phosphate (500 μM), nicotinamide adenine dinucleotide phosphate (NADP^+, 200 μM), and the enzymes (CypExpress Cytochrome P450 reagents: 15 mg/mL each; including both CYP and glucose-6-phosphate dehydrogenase enzymes) were incubated for 0, 30, 60, 90, and 120 min (700 rpm, 30 °C) in potassium phosphate buffer (0.05 M, pH 7.5). The reaction was stopped by the addition of ice-cold methanol (100 μL), then the samples were centrifuged (10 min, 14,000 g, room temperature). AOH content of the supernatants was directly analyzed by HPLC-FLD (see details in Section 2.7). As a control, CypExpress Control reagent (CYPnull; 15 mg/mL) was also applied, which is a permeabilized and stabilized dried yeast powder (produced using an empty vector) and processed identically to CypExpress Cytochrome P450 products.
(§3) In CYP experiments, AOH was quantified with the above-described HPLC system, except that a fluorescence detector (FP-920; Jasco, Tokyo, Japan) was applied. Samples (20 μL) were driven through a Phenomenex Security Guard (C18, 4.0 × 3.0 mm) precolumn (Phenomenex, Torrance, CA, USA) linked to a Kinetex EVO-C18 (250 × 4.6 mm, 5 μm; Phenomenex) analytical column with 1.0 mL/min flow rate, at room temperature. For the isocratic elution, a mobile phase with 1 mM phosphoric acid (pH 3.0) and acetonitrile (65:35 v/v%) was applied. AOH was detected at 455 nm (λex = 345 nm). Limit of detection (LOD) and limit of quantification (LOQ) were established as the lowest concentrations when the signal-to-noise ratios were three and ten, respectively. The major validation parameters of this HPLC-FLD method were the following: linearity (R^2 = 0.997, in the 100–1000 nM concentration range); LOD = 100 nM; LOQ = 200 nM; intraday precision = 2.9% (n = 7); accuracy = 3.4% (n = 7).

CYP2D6 = target: T2, CYP2D6 (Homo sapiens, UniProt P10635); type: in vitro ADME; conditions: 5 μM AOH; 120 min incubation; vs CYPnull
T2 construct: purchased Merck; host or cells: yeast (inferred from the description of the CYPnull control, 'processed identically')
Description: as §2, §3

CYP2C9 = target: T3, CYP2C9 (Homo sapiens, UniProt P11712); type: in vitro ADME; conditions: 5 μM AOH; 120 min incubation; vs CYPnull
T3 construct: purchased Merck; host or cells: yeast (inferred from the description of the CYPnull control, 'processed identically')
Description: as §2, §3

CYP1A2 = target: T4, CYP1A2 (Homo sapiens, UniProt P05177); type: in vitro ADME; conditions: 5 μM AOH
T4 construct: purchased Abcam ab211075
Description: as §2, §3

CYP3A4 = target: T5, CYP3A4 (Homo sapiens, UniProt P08684); type: in vitro ADME; conditions: 5 μM AOH; 120 min incubation; vs CYPnull
T5 construct: purchased Merck; host or cells: yeast (inferred from the description of the CYPnull control, 'processed identically')
Description: as §2, §3

OATP1A2 = target: T6, OATP1A2 (Homo sapiens, UniProt P46721); assay: cell-based; conditions: A431-OATP1A2; sulforhodamine 101 0.5 µM; pH 7.4; 10 min; read-out: IC50, OATP1A2 inhibition
T6 construct: expressed in transfected cells; host or cells: A431
Description: as §1
(§4) Interaction between OATPs (1A2, 1B1, 1B3, and 2B1) and AOH was measured in an indirect transport assay with pyranine or sulforhodamine 101 as fluorescent probes. A431 cell overexpressing OATPs or their mock transfected controls were seeded on 96-well plates one day prior to the measurements in 200 µL DMEM in 8 × 10^4 cells/well density. Before the measurement, the medium was removed, and cells were washed three times with 200 µL PBS (phosphate-buffered saline, pH 7.2) at room temperature. Then the cells were preincubated with 50 µL uptake buffer (125 mM NaCl, 4.8 mM KCl, 1.2 mM CaCl2, 1.2 mM KH2PO4, […], 25 mM MES, and 5.6 mM glucose, with the pH adjusted using 1 M HEPES and 10 N NaOH, pH 5.5 for OATP1B1/1B3/2B1 and pH 7.4 for OATP1A2) with or without increasing concentrations (0.00, 0.16, 0.31, 0.63, 1.25, 2.5, 5.0, 10, and 20 μM) of AOH for 5 min. The reaction was started when the probe was added in 10 µM (pyranine; OATP1B1), 20 µM (pyranine; OATP2B1 and OATP1B3), or 0.5 µM (sulforhodamine 101; OATP1A2) final concentrations. […] Fluorescence was measured in an Enspire plate reader (Perkin Elmer, Waltham, MA, USA) in Ex/Em wavelengths 460/510 nm for pyranine and 586/605 nm for sulforhodamine 101. Bottom reading was applied with two horizontal (X) and two vertical (Y) points, measurement height was 3 mm with 200 flashes. IC50 values were calculated by sigmoidal fitting (Hill1), using the Origin (version 2018, OriginLab Corporation, Northampton, MA, USA) software.

OATP2B1 = target: T7, OATP2B1 (Homo sapiens, UniProt O94956); assay: cell-based; conditions: A431-OATP2B1; pyranine 20 µM; pH 5.5; 15 min; read-out: IC50, OATP2B1 inhibition
T7 construct: expressed in transfected cells; host or cells: A431
Description: as §1, §4

OATP1B3 = target: T8, OATP1B3 (Homo sapiens, UniProt Q9NPD5); assay: cell-based; conditions: A431-OATP1B3; pyranine 20 µM; pH 5.5; 30 min; read-out: IC50, OATP1B3 inhibition
T8 construct: expressed in transfected cells; host or cells: A431
Description: as §1, §4

T4 sequence (P05177 whole entry): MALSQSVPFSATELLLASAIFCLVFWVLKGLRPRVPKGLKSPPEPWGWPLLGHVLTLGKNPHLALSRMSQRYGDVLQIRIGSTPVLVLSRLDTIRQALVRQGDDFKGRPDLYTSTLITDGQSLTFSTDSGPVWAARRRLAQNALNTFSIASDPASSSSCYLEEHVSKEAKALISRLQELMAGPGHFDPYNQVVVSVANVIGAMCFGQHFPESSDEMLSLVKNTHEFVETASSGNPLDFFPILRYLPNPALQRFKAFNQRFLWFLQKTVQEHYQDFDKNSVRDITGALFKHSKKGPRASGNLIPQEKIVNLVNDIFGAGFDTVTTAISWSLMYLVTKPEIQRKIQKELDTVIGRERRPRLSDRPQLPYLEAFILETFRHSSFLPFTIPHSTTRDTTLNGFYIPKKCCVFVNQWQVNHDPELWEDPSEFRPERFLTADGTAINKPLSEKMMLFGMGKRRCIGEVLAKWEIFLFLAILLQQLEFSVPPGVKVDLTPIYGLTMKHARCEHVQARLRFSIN
T1 sequence (P33261 whole entry): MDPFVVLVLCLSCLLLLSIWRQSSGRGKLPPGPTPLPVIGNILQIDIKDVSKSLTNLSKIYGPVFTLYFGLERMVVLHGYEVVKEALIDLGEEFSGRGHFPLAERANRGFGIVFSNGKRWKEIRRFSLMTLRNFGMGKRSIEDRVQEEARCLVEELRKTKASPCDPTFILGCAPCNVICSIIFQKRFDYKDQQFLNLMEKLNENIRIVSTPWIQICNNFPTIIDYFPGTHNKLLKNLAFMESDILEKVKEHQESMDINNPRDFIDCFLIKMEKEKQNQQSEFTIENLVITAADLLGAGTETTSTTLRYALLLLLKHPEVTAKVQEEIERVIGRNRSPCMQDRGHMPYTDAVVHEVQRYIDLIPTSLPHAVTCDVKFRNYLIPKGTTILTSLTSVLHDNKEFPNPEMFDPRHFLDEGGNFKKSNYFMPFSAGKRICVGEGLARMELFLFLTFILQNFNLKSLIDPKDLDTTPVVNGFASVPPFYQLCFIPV
OATP1B1, sequence (Q9Y6L6 whole entry): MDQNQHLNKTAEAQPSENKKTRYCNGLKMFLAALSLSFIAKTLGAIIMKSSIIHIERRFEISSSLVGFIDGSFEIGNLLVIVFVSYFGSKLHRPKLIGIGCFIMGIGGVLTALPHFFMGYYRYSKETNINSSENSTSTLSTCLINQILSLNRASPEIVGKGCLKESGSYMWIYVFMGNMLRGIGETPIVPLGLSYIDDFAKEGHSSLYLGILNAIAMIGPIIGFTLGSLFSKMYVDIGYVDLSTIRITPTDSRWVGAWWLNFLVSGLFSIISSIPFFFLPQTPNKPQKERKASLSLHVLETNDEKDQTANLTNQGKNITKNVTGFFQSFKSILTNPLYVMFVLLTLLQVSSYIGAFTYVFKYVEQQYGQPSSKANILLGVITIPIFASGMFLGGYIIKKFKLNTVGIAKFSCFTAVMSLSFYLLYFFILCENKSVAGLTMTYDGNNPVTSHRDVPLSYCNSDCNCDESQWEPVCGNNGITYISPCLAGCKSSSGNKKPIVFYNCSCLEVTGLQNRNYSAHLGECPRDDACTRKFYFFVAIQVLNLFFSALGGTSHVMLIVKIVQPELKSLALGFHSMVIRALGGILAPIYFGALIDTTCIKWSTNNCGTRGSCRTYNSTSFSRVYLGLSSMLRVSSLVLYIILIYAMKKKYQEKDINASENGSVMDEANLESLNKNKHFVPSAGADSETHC
T5 sequence (P08684 whole entry): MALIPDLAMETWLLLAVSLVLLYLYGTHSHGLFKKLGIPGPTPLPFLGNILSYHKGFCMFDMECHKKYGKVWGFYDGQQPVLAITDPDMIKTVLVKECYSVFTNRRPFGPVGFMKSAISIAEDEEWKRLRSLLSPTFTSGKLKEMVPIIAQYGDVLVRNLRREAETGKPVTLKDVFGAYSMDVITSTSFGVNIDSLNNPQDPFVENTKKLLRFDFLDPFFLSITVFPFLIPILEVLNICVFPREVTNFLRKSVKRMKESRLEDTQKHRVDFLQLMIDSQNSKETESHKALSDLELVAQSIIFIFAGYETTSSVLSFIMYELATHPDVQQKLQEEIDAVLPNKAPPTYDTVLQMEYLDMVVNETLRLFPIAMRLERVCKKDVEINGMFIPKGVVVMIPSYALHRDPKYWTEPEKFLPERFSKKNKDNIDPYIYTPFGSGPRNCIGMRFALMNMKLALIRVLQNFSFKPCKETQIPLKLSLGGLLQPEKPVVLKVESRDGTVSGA
T7 sequence (O94956 whole entry): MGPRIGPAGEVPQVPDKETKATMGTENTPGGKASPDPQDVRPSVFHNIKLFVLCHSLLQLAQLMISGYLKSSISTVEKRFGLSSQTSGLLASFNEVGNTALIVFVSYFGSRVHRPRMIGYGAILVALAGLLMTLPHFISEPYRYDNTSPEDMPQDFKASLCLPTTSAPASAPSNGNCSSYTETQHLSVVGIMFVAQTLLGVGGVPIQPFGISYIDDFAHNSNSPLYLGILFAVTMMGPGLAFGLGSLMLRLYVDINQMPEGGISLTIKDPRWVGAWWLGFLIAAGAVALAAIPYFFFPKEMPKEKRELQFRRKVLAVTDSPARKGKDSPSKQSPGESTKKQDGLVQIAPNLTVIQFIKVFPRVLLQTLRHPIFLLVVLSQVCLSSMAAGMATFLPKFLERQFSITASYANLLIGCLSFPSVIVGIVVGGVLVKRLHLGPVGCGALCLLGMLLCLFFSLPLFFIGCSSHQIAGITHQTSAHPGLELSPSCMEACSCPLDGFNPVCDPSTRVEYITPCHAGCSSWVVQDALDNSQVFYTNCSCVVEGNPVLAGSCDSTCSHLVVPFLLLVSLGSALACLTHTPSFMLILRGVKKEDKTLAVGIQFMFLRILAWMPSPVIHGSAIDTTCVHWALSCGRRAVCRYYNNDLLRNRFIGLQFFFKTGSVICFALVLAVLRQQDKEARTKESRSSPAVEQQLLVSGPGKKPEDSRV
T8 sequence (Q9NPD5 whole entry): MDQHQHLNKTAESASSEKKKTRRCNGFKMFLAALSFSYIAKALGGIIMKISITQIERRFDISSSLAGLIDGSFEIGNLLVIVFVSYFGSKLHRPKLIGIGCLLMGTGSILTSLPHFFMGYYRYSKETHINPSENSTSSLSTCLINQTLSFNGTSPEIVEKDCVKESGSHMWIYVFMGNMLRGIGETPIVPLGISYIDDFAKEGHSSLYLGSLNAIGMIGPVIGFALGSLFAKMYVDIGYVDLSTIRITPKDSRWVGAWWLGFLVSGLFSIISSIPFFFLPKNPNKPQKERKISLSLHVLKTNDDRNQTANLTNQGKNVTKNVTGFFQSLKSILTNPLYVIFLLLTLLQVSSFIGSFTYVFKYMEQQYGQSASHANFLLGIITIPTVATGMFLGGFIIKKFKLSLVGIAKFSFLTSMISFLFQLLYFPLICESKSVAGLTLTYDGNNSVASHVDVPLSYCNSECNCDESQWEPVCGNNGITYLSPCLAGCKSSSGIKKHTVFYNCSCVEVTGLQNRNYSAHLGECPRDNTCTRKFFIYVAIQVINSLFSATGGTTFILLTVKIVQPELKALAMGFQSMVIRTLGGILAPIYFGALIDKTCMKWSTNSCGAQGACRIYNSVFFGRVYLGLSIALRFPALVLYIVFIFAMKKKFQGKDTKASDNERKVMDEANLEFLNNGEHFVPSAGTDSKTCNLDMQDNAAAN
T2 sequence (P10635 whole entry): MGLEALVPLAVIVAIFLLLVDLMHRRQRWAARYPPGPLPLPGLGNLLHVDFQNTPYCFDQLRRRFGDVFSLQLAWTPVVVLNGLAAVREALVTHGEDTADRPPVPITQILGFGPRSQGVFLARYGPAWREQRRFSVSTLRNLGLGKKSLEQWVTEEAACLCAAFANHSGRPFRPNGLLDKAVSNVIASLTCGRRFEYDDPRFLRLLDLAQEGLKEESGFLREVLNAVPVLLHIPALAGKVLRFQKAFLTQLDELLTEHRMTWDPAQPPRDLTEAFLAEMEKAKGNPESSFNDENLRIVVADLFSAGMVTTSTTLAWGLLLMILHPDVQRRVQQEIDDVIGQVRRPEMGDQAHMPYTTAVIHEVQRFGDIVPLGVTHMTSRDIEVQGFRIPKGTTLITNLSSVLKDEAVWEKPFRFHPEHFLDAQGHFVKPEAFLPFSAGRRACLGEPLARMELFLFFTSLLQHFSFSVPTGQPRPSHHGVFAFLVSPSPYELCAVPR
T3 sequence (P11712 whole entry): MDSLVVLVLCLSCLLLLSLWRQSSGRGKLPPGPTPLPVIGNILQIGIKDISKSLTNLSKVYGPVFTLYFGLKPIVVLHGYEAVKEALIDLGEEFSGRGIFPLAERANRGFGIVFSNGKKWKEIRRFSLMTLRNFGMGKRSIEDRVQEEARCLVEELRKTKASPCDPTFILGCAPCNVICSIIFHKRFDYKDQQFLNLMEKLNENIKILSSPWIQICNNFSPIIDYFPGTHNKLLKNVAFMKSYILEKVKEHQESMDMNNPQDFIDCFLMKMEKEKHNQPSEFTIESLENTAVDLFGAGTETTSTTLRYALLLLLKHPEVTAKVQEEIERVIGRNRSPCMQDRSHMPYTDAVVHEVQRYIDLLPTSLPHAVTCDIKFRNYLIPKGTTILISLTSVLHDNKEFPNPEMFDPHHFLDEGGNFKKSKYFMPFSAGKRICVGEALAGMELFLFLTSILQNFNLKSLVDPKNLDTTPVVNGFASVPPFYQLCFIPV

## Cc1cc(O)cc2oc(=O)c3c(O)cc(O)cc3c12 [AOH, Alternariol]
OATP1B1
  IC50: 2000 nM
CYP2C19
  changes in AOH levels in the presence of CYP2C19: slight decrease
CYP2D6
  changes in AOH levels in the presence of CYP2D6: no relevant changes
CYP2C9
  changes in AOH levels in the presence of CYP2C9: no relevant changes
CYP1A2; 60 min incubation
  depletion of AOH by CYP1A2: 16%
CYP1A2; 120 min incubation
  depletion of AOH by CYP1A2: 25%
CYP3A4
  changes in AOH levels in the presence of CYP3A4: no relevant changes
OATP1A2
  IC50: 5.4 µM
OATP2B1
  IC50: 1900 nM
OATP1B3
  IC50: 4.1 µM
